Patent publication US20120315290A1, “INHIBITORS OF LL-37 MEDIATED IMMUNE REACTIVITY TO SELF NUCLEIC ACIDS” (BOARD OF REGENTS, THE UNIVERSITY OF TEXAS SYSTEM, priority 2006, published 2012)

Test system: murine pDC
Experiment: Murine pDC stimulation with peptide/DNA complexes (IFN-a ELISA)
Format: cell-based, mouse
Settings: complexed with DNA
Procedure: Murine pDC were generated from Flt3 ligand supplemented BM cultures and isolated by sorting of CD11c+CD11b-B220+ cells, as previously described. 50,000 murine pDC in […] of complete medium were stimulated with human LL-37 ([…]), mouse CRAMP ([…]), DNA alone, or DNA plus LL-37 or DNA plus CRAMP. After overnight culture supernatants were collected and tested for IFN-a by ELISA.
Murine pDC respond to LL-37-DNA complexes. To determine whether mouse pDCs can respond to LL-37/DNA complexes, we purified mouse pDCs from Flt3L-supplemented BM cultures according to their CD11c+CD11b-B220+ phenotype, and stimulated them with DNA complexed with LL-37 or CRAMP (the murine LL-37 homologue). […] However, compared to LL-37, approximately 3 times more CRAMP was required to elicit the same amount of type I IFNs (FIG. 27).

Substance: CRAMP
- Amount required to elicit the same amount of type I IFNs, compared to LL-37: approximately 3 times
